Values quoted from earlier work, collected in US9333175B2, “Controlled release levetiracetam formulations and methods for producing the same” (Mylan Inc., priority 2010, dated 2016).

Details: A. J. Gower et al., Eur. J. Pharmacol., 222, 1992, 193-203

Structure (SMILES) | activity in the treatment of epilepsy
CC[C@@H](C(N)=O)N1CCCC1=O [Levetiracetam, (S)-(−)-alpha-ethyl-2-oxo-1-pyrrolidine acetamide] | effective in the treatment of epilepsy
CC[C@H](C(N)=O)N1CCCC1=O [(R)-(+)-alpha-ethyl-2-oxo-1-pyrrolidine acetamide] | completely lacks activity
